Reference: patent publication US20230355605A1, “DRUG FOR ENHANCING FIBRINOLYTIC SYSTEM, AND USE THEREFOR” (priority 2020, published 2023)

How the values were obtained:
human-derived PAI-1 = human-derived PAI-1 (Homo sapiens, UniProt P05121); assay: Human plasma clot fibrinolysis test (PAI-1 inhibitory effect); assay type: biochemical; conditions: human plasma clot with t-PA and human-derived PAI-1
Protocol: A human plasma clot fibrinolysis test was performed to evaluate the PAI-1 inhibitory effect of the present compound.
Specifically, human-derived PAI-1 and the present compound were added to a reaction mixture containing t-PA, which dissolves blood clots caused by addition of thrombin to normal human pooled plasma, and the inhibition of the effect of t-PA by PAI-1 (PAI-1 effect) and the removal of the PAI-1 effect by the present compound (PAI-1 inhibition) (fibrinolysis enhancement) were evaluated.

[1] = system: cynomolgus monkey model of saphenous arterial thrombus; assay: Cynomolgus monkey model of saphenous arterial thrombus (PIT model); assay type: in vivo
Protocol: The thrombus formation inhibitory effect of the present compound was evaluated using a cynomolgus monkey model of saphenous arterial thrombus (PIT model) .
Before the procedure, the present compound suspended in a 0.5% CMC-Na aqueous solution was orally administered to test groups of cynomolgus monkeys at dosages of 0.1, 0.3, 1, and 3 mg/kg. […] A light irradiation probe was placed on a saphenous artery of each cynomolgus monkey to cause thrombus formation by applying green light of 540 nm for 20 minutes at the time of intravenously administering rose bengal (20 mg/kg). A decrease in blood flow due to this thrombus formation was measured with a pulse Doppler blood flowmeter, and the thrombus formation inhibitory effect of the present compound was evaluated by measuring the occlusion time on the first day and the cumulative occlusion time.

[2] = system: mouse model of bleomycin-induced pulmonary fibrosis; assay: Mouse model of bleomycin-induced pulmonary fibrosis; assay type: in vivo
Protocol: The improvement effect of the present compound on pulmonary fibrosis (remodeling after lung damage) was evaluated using a mouse model of bleomycin-induced pulmonary fibrosis. […] Because of similarity of histopathological changes to pulmonary fibrosis in humans, this mouse model is widely used for the evaluation of the drug efficacy.
To a fibrosis mouse model (fibrosis model group) given a single dose of bleomycin (1.2 mg/mL), the present compound (0.75 mg/kg/day) was orally administered for 21 days (present compound administration group, n = 9), and biochemical analysis of the lungs and measurement of clinical conditions of the lungs were performed on day 22. For comparison, instead of the present compound, the solvent used to dissolve the present compound was administered to a fibrosis model group in the same manner (vehicle group, n = 10), and biochemical analysis and measurement of clinical conditions of the lungs were performed. As a positive control group, a dexamethasone administration group (0.25 mg/kg administration, n = 9) was used. The biochemical analysis was performed using lung hydroxyproline values as an index. The clinical conditions of the lungs were evaluated by performing Masson’s trichrome staining and calculating Ashcroft scores according to a report of Ashcroft et al. (Ashcroft T et al., J Clin Pathol, 1988; 41:467). The clinical conditions were confirmed by comparing a normal mouse group (normal group, n = 10) with the vehicle group (n = 10), and the improvement effect of the present compound on pulmonary fibrosis was evaluated by comparing the vehicle group (n = 10) with the present compound administration group (n = 9). Differences between the mean values of the groups were tested by the Bonferroni selected pairs test using Prism 4 (GraphPad Software).
Table 1 and FIG. 3(A) and FIG. 3(B) show the results of comparisons of the lung hydroxyproline values and the Ashcroft scores in the groups. The mean values of the groups are expressed as mean±SD, and examination was performed at a 5% significance level.

cynomolgus monkeys = assay: 39-week repeated oral dose toxicity study in cynomolgus monkeys; assay type: in vivo; conditions: 10, 30, 100 mg/kg oral, 39 weeks
Protocol: A GLP-compliant 39-week repeated oral dose study was performed in cynomolgus monkeys at dosages of 10, 30, and 100 mg/kg.

[3] = system: Salmonella typhimurium TA100, TA1535, TA98, TA1537 and Escherichia coli WP2uvrA; assay: Mutagenicity study using bacteria (pre-incubation method); assay type: cell-based; conditions: five strains; metabolic activation method and direct method
Protocol: The gene mutagenicity by the present compound was examined using bacteria.
A study was conducted in the presence of a metabolic activator (hereinafter referred to as a “metabolic activation method”) and in the absence of a metabolic activator (hereinafter referred to as a “direct method”) by a pre-incubation method, using three strains, i.e., Salmonella typhimurium TA100 and TA1535, and Escherichia coli WP2uvrA, to detect base pair substitution gene mutations, and two strains, i.e., Salmonella typhimurium TA98 and TA1537, to detect frameshift gene mutations.

CHL/IU cells = assay: Chromosomal abnormality study; assay type: cell-based, Chinese hamster; conditions: with and without S9 mix
Protocol: A study on the clastogenic property of the present compound was performed in the presence of a drug metabolism-activating enzyme (S9 mix) (hereinafter referred to as a “metabolic activation method”) and in the absence of a drug metabolism-activating enzyme (S9 mix) (hereinafter referred to as a “direct method”) using mammalian cultured cells (Chinese hamster cultured cells (CHL/IU cells)).

t-PA = t-PA activity in blood, phase I repeated oral dose study; assay type: in vivo, human
Protocol: The pharmacological activities (PAI-1 activity and t-PA activity) were evaluated using blood collected from the subjects before and after administration of the present compound or the placebo as test samples. Blood was collected before administration and 2, 4, and 8 hours after administration on the first day of the experiment (day 1) and day 7 after the start of the experiment, and on the other days, blood was collected once a day before administration (only before administration on days 2 to 6, day 8, and day 11 after the start of administration).
After collecting blood samples from the subjects, the samples were treated with 0.5 M sodium citrate (pH of 4.3) and centrifuged at 4° C., 2,500 g for 15 minutes to obtain plasma. The collected plasma was used for measurement of t-PA activity and stored frozen at -80° C. until measurement.
The t-PA activity was measured using a ZYMUPHEN tPA Activity kit (produced by HYPHEN BioMed). In this system, a plasma sample collected from a subject is reacted with human plasminogen to form plasmin by the action of tPA, the plasmin is reacted with a substrate specific to plasmin, and pNA, which is a degradation product produced, is measured by the absorbance at a wavelength of 405 nm with a plate reader.

[4] = day 22, present compound 0.75 mg/kg/day oral 21 days, dexamethasone 0.25 mg/kg, mean±SD

human-derived PAI-1, sequence (P05121 24-402): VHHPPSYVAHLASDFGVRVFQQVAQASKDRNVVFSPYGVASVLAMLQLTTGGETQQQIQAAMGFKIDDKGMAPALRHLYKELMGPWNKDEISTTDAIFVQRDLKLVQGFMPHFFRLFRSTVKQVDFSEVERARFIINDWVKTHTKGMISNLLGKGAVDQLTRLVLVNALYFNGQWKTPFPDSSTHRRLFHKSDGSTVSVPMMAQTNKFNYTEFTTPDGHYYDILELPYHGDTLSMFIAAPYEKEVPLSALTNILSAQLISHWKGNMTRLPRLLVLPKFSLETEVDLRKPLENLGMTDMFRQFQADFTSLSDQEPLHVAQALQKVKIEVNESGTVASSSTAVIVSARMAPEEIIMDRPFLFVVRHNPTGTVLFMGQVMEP

O=C(Nc1ccc(Cl)cc1C(=O)[O-])c1cccc(-c2cccc3cccnc23)c1.[Na+] [present compound, sodium 5-chloro-2-({ [3-(quinolin-8-yl)phenyl]carbonyl}amino)benzoate]
concentration with PAI-1 inhibitory effect (fibrinolysis enhancement effect) (human-derived PAI-1): ≥ 10 µM
initial occlusion time vs vehicle group ([1]; 0.3 mg/kg oral, P<0.05): Significant prolongation
cumulative occlusion time vs vehicle group ([1]; 0.1, 0.3, 1.0, 3.0 mg/kg oral, P<0.01, dose-dependent): significant reductions
minimum effective dosage ([1]; oral administration to monkeys): 0.1 mg/kg
Ashcroft score compared with vehicle group ([2]; 5% significance level): significantly lower
lung hydroxyproline value compared with vehicle group ([2]; 5% significance level): significantly lower
Ashcroft score [2, 4]: 2.2±0.3
Lung hydroxyproline value [2, 4]: 58.7±10.1 µg/left lung
deaths during the administration period (cynomolgus monkeys): No deaths
effect on general condition, body weight, food consumption, ophthalmology, ECG, hematology, urinalysis, necropsy, organ weights (cynomolgus monkeys): No effect
mutagenesis effect [3]: no mutagenesis effect
clastogenic effect (CHL/IU cells): no clastogenic effect
t-PA activity in blood vs placebo (t-PA; 60 mg/day oral, days 1 and 7): neither PAI-1 activity nor t-PA activity was different
time after administration of maximal increase in t-PA activity (t-PA; 120 mg/day oral): 8 h
t-PA activity in blood (t-PA; 120 mg/day oral, days 1 and 7): increased
